Patent publication US12616672B2, “Methods for assessing risk of cardiovascular disease and methods and compounds for use in treating or preventing cardiovascular disease” (Queen Mary University of London, priority 2017, dated 2026)
“And” between values parts separate entries of the source, which are not always exact repeats. Equal values may be shown once.

Tests used:
[1] = tested on: peripheral blood from healthy volunteers; assay: Human whole blood incubations (ACh, norepinephrine, cortisol), then lipid mediator profiling of plasma; format: cell-based; settings: for production of n-3 DPA derived mediators in peripheral blood: norepinephrine 0.1-10 μM, cortisol 1-10 μM, healthy volunteers
Experimental: Plasma was obtained from peripheral blood of healthy volunteers and patients following centrifugation at 1500×g for 10 min at room temperature. Descending aortas were weighed, placed in ice-cold methanol and homogenized using a glass dounce.
All samples for LC-MS-MS-based profiling were extracted using solid-phase extraction columns as described in Dalli et al. 2013 and Rathod et al. 2017, the contents of which are incorporated herein by reference.
Prior to sample extraction, deuterated internal standards, representing each region in the chromatographic analysis (500 pg each) were added to facilitate quantification in 4V of cold methanol.
Samples were kept at −20° C. for a minimum of 45 min to allow protein precipitation.
Supernatants were subjected to solid phase extraction, methyl formate fraction collected, brought to dryness and suspended in phase (methanol/water, 1:1, vol/vol) for injection on a Shimadzu LC-20AD HPLC and a Shimadzu SIL-20AC autoinjector, paired with a triple quadrupole mass spectrometer with or without a linear ion trap.
An Agilent Poroshell 120 EC-C18 column (100 mm×4.6 mm×2.7 μm) was kept at 50° C. and mediators eluted using a mobile phase consisting of methanol-water-acetic acid of 20:80:0.01 (vol/vol/vol) that was ramped to 50:50:0.01 (vol/vol/vol) over 0.5 min and then to 80:20:0.01 (vol/vol/vol) from 2 min to 11 min, maintained till 14.5 min and then rapidly ramped to 98:2:0.01 (vol/vol/vol) for the next 0.1 min. This was subsequently maintained at 98:2:0.01 (vol/vol/vol) for 5.4 min, and the flow rate was maintained at 0.5 ml/min. Mass spectrometer was operated using a multiple reaction monitoring method as in Walker M E et al. 13-Series resolvins mediate the leukocyte-platelet actions of atorvastatin and pravastatin in inflammatory arthritis. FASEB J. 2017 August; 31(8):3636-3648, the contents of which are incorporated herein by reference.
Each LM was identified using established criteria including matching retention time to synthetic and authentic materials and at least six diagnostic ions (Walker M E et al. 2017. ibid.)
Calibration curves were obtained for each using synthetic compound mixtures at 0.78, 1.56, 3.12, 6.25, 12.5, 25, 50, 100, and 200 pg that gave linear calibration curves with an r^2 values of 0.98-0.99. […]

[2] = tested on: peripheral blood from CVD patients; settings: ADA 1U, 37° C., 20 min, then perfused 0.3 Pa
Experimental: (B) Peripheral blood from CVD patients was incubated with ADA (1U; 37° C.; 20 min) then perfused (0.3 Pa, 20 min, 37° C.). Plasma was collected and RvDn-3 DPA concentrations determined using LC/MS-MS based lipid mediator profiling. Results are mean±s.e.m. n=6 donors. *p<0.05, using paired Mann-Whitney test.
Using an automated syringe pump (Harvard Apparatus) connected to small-diameter tubing (1.6 mm inner diameter) and chamber slides (15μ-Slide VI^0.4, Ibidi), whole blood was perfused at a sheer rate of 0.1 dyne/cm^2 (low sheer rate) and at 0.3 dyne/cm^2 (high sheer rate) for 15 min. In selected experiment, blood was incubated with 10 nM Ach or 1 u of ADA for 20 min prior perfusing.

[3] = tested on: peripheral blood leukocytes and platelets from CVD patients; assay: CVD patient whole blood incubated with RvD2n-3 DPA or RvD5n-3 DPA then PAF, flow cytometry; format: cell-based, human
[4] = tested on: healthy volunteer peripheral blood neutrophils, monocytes and platelets; assay: Healthy volunteer whole blood incubated with RvDn-3 DPA then PAF, flow cytometry of activation markers; format: cell-based, human; settings: vs PAF alone
Experimental: Blood was collected from healthy volunteers and incubated with RvD2n-3 DPA, RvD5n-3 DPA (0.1 nM, 1 nM or 10 nM) or vehicle (PBS) for 15 min (37° C.) then with PAF (100 ng/ml; 30 min; 37° C.). Cell activation and leukocyte-platelet aggregates were assessed using flow cytometry. (A,B) Representative histograms depicting neutrophil (A) CD11b and (B) CD62P expression. (C,D) Cumulative neutrophil ([…]) CD11b and (D) CD62P expression. (E,F) Monocyte (E) CD11b and (F) CD62P expression. Results are mean of n=5 per time point and expressed as percentage change from PAF incubated cells. *p<0.05 compared to PAF using one-sample t test, followed by Sidak correction of p values.
Blood was collected from healthy volunteers and incubated with RvD2n-3 DPA, RvD5n-3 DPA (0.1 nM, 1 nM or 10 nM) or vehicle (PBS) for 15 min (37° C.) then with PAF (100 ng/ml; 30 min; 37° C.). Cell activation and leukocyte-platelet aggregates were assessed using flow cytometry. (A,B) Images depicting platelet monocyte (A) and (B) platelet-neutrophil aggregates. Results are representative of n=3 distinct experiments. (C,D) Cumulative neutrophil (C) CD11b and (D) CD62P expression. (E,F) Monocyte (E) CD11b and (F) CD62P expression. Results are mean of n=5 per condition and expressed as percentage change from PAF incubated cells. *p<0.05 compared to PAF using Wilcoxon Signed Rank Test. (G) Platelet rich plasma was incubated with vehicle (PBS) or RvD5n-3 DPA 0.1-10 nM (15 min; 37° C.) and PAF (100 nM; 30 min; 37° C.). Adhesion molecule expression evaluated using flow cytometry. Results are mean±s.e.m. n=5 healthy volunteers. * p, 0.05 compared to Vehicle group using Friedman's test followed by Dunn's multiple comparisons test.
(§1) After stimulation, samples were washed twice with PBS for 12 min at 800×g. Samples were stained for flow cytometry as described below.
(§2) Whole blood was incubated with lineage-specific markers for 45 min (4° C., in DPBS containing 0.02% BSA). The following anti-human antibodies were used: VioBlue-anti-CD41, PE-Cy5-anti-CD62P, Brilliant Violet 711-anti-CD11b, APC-Cy7-anti-CD16, Alexa Fluor 647-anti-CD14. After staining, red blood cells were lysed using Whole Blood Lysing Reagent Kit, according to the manufacturer's instructions. Data was collected using a flow cytometer and analysis was conducted using appropriate software.

[5] = tested on: peripheral blood leukocytes and platelets from CVD patients; assay: CVD patient whole blood incubated with RvD2n-3 DPA or RvD5n-3 DPA for 45 min, flow cytometry; format: cell-based, human; settings: 45 min, no PAF
Experimental: FIG. 8: RvD2n-3 DPA and RvD5n-3 DPA reduce leukocyte activation in peripheral blood from CVD patients. Peripheral blood from patients diagnosed with cardiovascular disease (CVD) was collected at 9:00 h. […] Expression of CD62P on (A) neutrophils (B) monocytes and CD11b on (C) neutrophils and (D) monocytes was investigated using flow cytometry and fluorescently labelled antibodies.
as §2
In select experiments platelet adhesion molecule expression was assessed. Here platelets were incubated with fluorescently labelled mouse anti-human VioBlue-anti-CD41, PE-Cy5-anti-CD62P, PerCP/Cy5.5-anti-CD63 and FITC-ant-CD42b for 30 min at 4° C. Cells were then washed and fluorescence, staining evaluated using LSRFortessa cell analyser (BD Biosciences) and analysed using FlowJo software (Tree Star Inc., V10).

[6] = tested on: peripheral blood leukocytes and platelets from CVD patients; assay: CVD patient whole blood incubated with RvD2n-3 DPA or RvD5n-3 DPA then PAF, flow cytometry; format: cell-based, human; settings: 15 min then PAF 30 min
Experimental: (§3) Whole blood was incubated with RvD2n-3 DPA or RvD5n-3 DPA (0.1 nM, 1 nM or 10 nM) or vehicle (PBS containing 0.01% EtOH) for 15 min then with PAF (100 ng/ml) for 30 min (37° C.). Expression of CD62P on (A) neutrophils (B) monocytes and CD11b on (C) neutrophils and (D) monocytes was investigated using flow cytometry and fluorescently labelled antibodies. Results are mean±s.em. and expressed as percentage of PAF incubated cells. n=9 patients per interval. * p<0.05 vs Veh group using one-sample t test, followed by Sidak correction of p values.
as §3, with “labeled” for “labelled”, “group.” for “interval.”, “PAF” for “Veh”, “Wilcoxon Signed Rank Test.” for “one-sample t test, followed by Sidak correction of p values.”
as §1, §2

[7] = whole blood with Cortisol 1 μM, 45 min, n = 5
[8] = whole blood with Cortisol 10 μM, 45 min, n = 5
[9] = whole blood with ACh 0.1 μM, 45 min, 37° C., n = 9
[10] = whole blood with ACh 0.1 μM, 45 min, n = 9
[11] = 0.1, 1, 10 nM, 15 min then PAF 30 min
[12] = CVD patient whole blood, 0.1, 1, 10 nM

## C[C@]12CCC(=O)C=C1CC[C@@H]1[C@@H]2[C@@H](O)C[C@@]2(C)[C@H]1CC[C@]2(O)C(=O)CO [Cortisol, cortisol]
[1]
  production of n-3 DPA derived mediators in peripheral blood: did not significantly augment
[1]; [7]
  7-HDPA concentration: 268.9 ± 83.5 pg/mL
  13-HDPA concentration: 3.2 ± 0.7 pg/mL
  14-HDPA concentration: 286.2 ± 91.0 pg/mL
  17-HDPA concentration: 74.9 ± 18.2 pg/mL
  DPA concentration: 24568.2 ± 6300.4 pg/mL
  MaR1n-3 DPA concentration: 0.3 ± 0.2 pg/mL
  PD1n-3 DPA concentration: 1.5 ± 1.1 pg/mL
  RvD1n-3 DPA concentration: 1.9 ± 1.2 pg/mL
  RvD2n-3 DPA concentration: 1.0 ± 0.9 pg/mL
  RvD5n-3 DPA concentration: 1.1 ± 0.6 pg/mL
  RvT1 concentration: 0.5 ± 0.2 pg/mL
  RvT2 concentration: 0.1 ± 0.1 pg/mL
  RvT3 concentration: 1.6 ± 0.5 pg/mL
  RvT4 concentration: 2.7 ± 1.5 pg/mL
[1]; [8]
  7-HDPA concentration: 257.8 ± 109.6 pg/mL
  13-HDPA concentration: 3.0 ± 0.6 pg/mL
  14-HDPA concentration: 241.0 ± 40.9 pg/mL
  17-HDPA concentration: 71.5 ± 17.5 pg/mL
  DPA concentration: 28823.5 ± 8019.0 pg/mL
  MaR1n-3 DPA concentration: 0.2 ± 0.2 pg/mL
  PD1n-3 DPA concentration: 2.5 ± 1.5 pg/mL
  RvD1n-3 DPA concentration: 1.7 ± 1.5 pg/mL
  RvD2n-3 DPA concentration: 1.2 ± 0.8 pg/mL
  RvD5n-3 DPA concentration: 1.7 ± 0.3 pg/mL
  RvT1 concentration: 0.6 ± 0.2 pg/mL
  RvT2 concentration: 0.1 ± 0.0 pg/mL
  RvT3 concentration: 2.2 ± 1.5 pg/mL
  RvT4 concentration: 3.0 ± 1.8 pg/mL

## CC(=O)OCC[N+](C)(C)C [ACh, acetylcholine]
[1]; whole blood incubated with ACh
  increase in RvD2n-3 DPA compared with blood incubated with vehicle alone: ~160%
[1]; [9]
  7-HDPA concentration: 44.9 pg/mL and 44.9 ± 10.7 pg/mL
  13-HDPA concentration: 1.9 pg/mL and 1.9 ± 0.6 pg/mL
  14-HDPA concentration: 137.2 pg/mL and 137.2 ± 25.8 pg/mL
  17-HDPA concentration: 58.9 pg/mL and 58.9 ± 13.2 pg/mL
  DPA concentration: 3873.1 pg/mL and 3873.1 ± 706.3 pg/mL
  MaR1n-3 DPA concentration: 0.9 pg/mL
  PD1n-3 DPA concentration: 0.5 pg/mL
  RvD1n-3 DPA concentration: 4.9 pg/mL
  RvD2n-3 DPA concentration: 7.4 pg/mL
  RvD5n-3 DPA concentration: 1.5 pg/mL
  RvT1 concentration: 2.0 pg/mL
  RvT2 concentration: 1.6 pg/mL
  RvT3 concentration: 1.4 pg/mL
  RvT4 concentration: 1.0 pg/mL
[1]; [10]
  4HDHA concentration: 19.9 ± 5.1 pg/mL
  5HEPE concentration: 42.7 ± 11.3 pg/mL
  5HETE concentration: 69.9 ± 13.5 pg/mL
  7HDHA concentration: 8.6 ± 3.7 pg/mL
  12HEPE concentration: 402.4 ± 106.0 pg/mL
  12HETE concentration: 5148.0 ± 1153.2 pg/mL
  14HDHA concentration: 229.2 ± 41.2 pg/mL
  15HEPE concentration: 31.3 ± 8.7 pg/mL
  15HETE concentration: 336.4 ± 95.2 pg/mL
  17HDHA concentration: 103.6 ± 25.9 pg/mL
  18HEPE concentration: 36.2 ± 12.2 pg/mL
  AA concentration: 24205.0 ± 4783.4 pg/mL
  DHA concentration: 28104.0 ± 10103.4 pg/mL
  EPA concentration: 5867.2 ± 713.2 pg/mL

## NC[C@H](O)c1ccc(O)c(O)c1 [norepinephrine]
[1]
  production of n-3 DPA derived mediators in peripheral blood: did not significantly augment

## adenosine deaminase [ADA]
[2]
  concentrations of RvDn-3 DPA in CVD patient blood: increase

## CC/C=C\CC(O)C(O)/C=C/C=C/C=C\C=C\C(O)CCCCCC(=O)O (stereo not drawn) [RvD2n-3 DPA, 7,16,17-trihydroxy-8,10,12,14E,19Z-docosapentaenoic acid]
[3]
  expression of CD62P on peripheral blood platelets: dose-dependently regulated
  expression of CD63 on peripheral blood platelets: dose-dependently regulated
[4]; [11]
  monocyte expression of CD11b: dose dependent decreases
  monocyte expression of platelet marker CD62P: dose dependent decreases
  neutrophil CD11b expression: dose dependent decreases
  neutrophil-platelet aggregates measured as neutrophil CD62P expression: dose dependent decreases
[4]; at 10 nM, n=5 donors
  decrease in monocyte CD41 expression: ~29%
  decrease in neutrophil CD41 expression: ~20%
[5]; [12]
  monocyte CD11b expression: without significantly regulating
  neutrophil CD11b expression: without significantly regulating
  platelet-monocyte aggregates: dose-dependently decreased
  platelet-neutrophil aggregates: dose-dependently decreased
[5]; CVD patient whole blood
  platelet CD62P expression: downregulated
  platelet CD63 expression: downregulated
[6]
  expression of CD11b on monocytes: only in part shared
  expression of CD11b on neutrophils: only in part shared
  platelet-monocyte aggregates measured as CD62P and CD41 expression: decreases
  platelet-neutrophil aggregates measured as CD62P and CD41 expression: decreases
